Source: patent publication US12161694B2, “Methods and compositions for regulating innate lymphoid cell inflammatory responses” (The Broad Institute, Inc., priority 2017, dated 2024)
“Also recorded” adds a separate entry of the source. Where no end group is shown, it is not given here.

System: lung-resident ILCs
Assay: Droplet-based scRNA-seq of lung-resident ILCs after in vivo treatment
Design: species or system mouse
Conditions: PBS, NMU, IL-25, combination
From the text: Mice and in vivo ILC activation. C57Bl/6J mice were purchased from the Jackson Laboratory. Nmur1-LacZ reporter mice with a LacZ cassette knocked into the Nmur1 locus were rederived from Nmur1^tm1.1(KOMP)Vleg sperm obtained from the trans-NIH Knock-Out Mouse Project (KOMP) Repository. Mice were housed under specific-pathogen-free conditions. For experiments, mice were matched for sex and age, and most mice were 6-10 weeks old. Where indicated, mice were anesthetized with Isoflurane and treated intranasally with the indicated stimuli (500 ng IL-25, 500 ng IL-33, or 20 μg Neuromedin U) daily for three consecutive days. The total administered volume was 20 μl for all conditions. Mice were randomly assigned to treatment groups after matching for sex and age. […]
Fluorescence-activated cell sorting of innate lymphoid cells. […]
Analysis of droplet-based scRNA-Seq data: Initial QC. Gene counts were obtained by aligning reads to the mm10 genome using CellRanger software (10× Genomics), with the genome reannotated at the 3′ end of Nmur1 (see main text). […]
Analysis of droplet-based scRNA-Seq samples: Signature scores. Applicants calculated signature scores as the log of the geometric mean of the TPX values for the genes in the signature. […] Then the signature score for that cell is calculated as log(IIg(xg+1)^1/m) which is equivalent to the arithmetic mean of the log TPX values. […]

## Neuromedin U (FRVDEEFQSPFASQSRGYFLFRPRN-NH2; listed as Homo sapiens) [NMU, neuropeptide ligand of Nmur1 (US Biological)]
  transcriptional profiles of ILCs (tSNE localization): largely localized with those from control mice; also recorded: transcriptionally similar to control ILCs
